How the values were obtained:
Assay type in all cases: biochemical
[1] = biological target: T1, human Tyro3 (Homo sapiens, UniProt Q06418); assay: Kinase enzymatic activity assay (33P-radiolabeled phosphate transfer), Tyro3; conditions: recombinant human Tyro3 (455-end), poly(4:1 glu:tyr) substrate, 30 minutes
T1 construct: GST (N); made in house; host or cells: Sf9 insect cells (baculovirus)
T1 sequence (Q06418 455-890 limits assumed): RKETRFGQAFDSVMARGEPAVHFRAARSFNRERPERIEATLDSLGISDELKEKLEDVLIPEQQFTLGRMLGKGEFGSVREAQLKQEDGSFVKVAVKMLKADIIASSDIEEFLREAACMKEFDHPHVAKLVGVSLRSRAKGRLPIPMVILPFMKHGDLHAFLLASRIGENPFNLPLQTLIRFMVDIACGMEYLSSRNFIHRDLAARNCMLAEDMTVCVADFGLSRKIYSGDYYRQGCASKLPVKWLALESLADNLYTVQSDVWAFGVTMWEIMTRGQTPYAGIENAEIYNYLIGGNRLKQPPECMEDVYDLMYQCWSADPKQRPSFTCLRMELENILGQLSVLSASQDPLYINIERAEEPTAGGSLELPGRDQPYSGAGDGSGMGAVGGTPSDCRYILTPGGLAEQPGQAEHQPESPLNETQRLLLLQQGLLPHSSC
From the text: (§1) The identification of compounds of the invention as Tyro3, Axl or Mer inhibitors was readily accomplished using the recombinant human Tyro3, Axl and Mer proteins and employing the ^33P-radiolabeled phosphate transfer assay for which the procedure is known to someone skilled in the art or as described in Example 9.
(§2) Recombinant human Tyro3 (455-end, the gene accession number NM_006293), human Axl (473-end, the gene accession number NM_021913) and human Mer (578-872, the gene accession number NM_006343) were independently expressed by baculovirus in Sf9 insect cells using an N-terminal GST tag. The recombinant proteins were stored at −70° C. in a medium containing 50 mM Tris-HCl, pH 7.5, 150 mM NaCl, 10 mM glutathione, 0.1 mM EDTA, 0.25 mM DTT, 0.1 mM PMSF and 25% glycerol. The recombinant proteins were aliquoted into smaller quantities after centrifugation to avoid repeated handling and multiple freeze/thaw cycles for the most favorable performance.
(§3) Kinase Assay Buffer: This buffer solution consisted of the following components: 25 mM MOPS, pH 7.2, 12.5 mM β-glycerol-phosphate, 25 mM MgCl2, 5 mM EGTA, 2 mM EDTA and DTT 0.25 mM which was added prior to use.
(§4) Kinase Dilution Buffer: Kinase Assay Buffer was diluted at a 1:4 ratio (5× dilution) with distilled water.
(§5) [^33P]-ATP assay cocktail: In a designated radioactive working area, a 250 μM [^33P]-ATP assay cocktail was prepared by the addition of the following components: 150 μL of 10 mM ATP stock solution, 100 μL [^33P]-ATP (1 mci/100 μL), and 5.75 mL of kinase assay buffer. This solution was stored in 1 mL aliquots at −20° C.
(§6) ATP stock solution (10 mM): The ATP stock solution was prepared by dissolving 55 mg of ATP in 10 mL of kinase assay buffer. It was stored in 200 μL aliquots at −20° C.
(§7) Active Kinase Stock Solution: The active recombinant kinase protein (0.1 μg/μL) was diluted with Kinase Dilution Buffer and the activity was assayed using a serial dilution method. The specific activity is expressed in nmoL/min/mg.
(§8) Substrates: poly(4:1 glu:tyr) is the substrate used for each kinase Tyro3, Axl and Mer: The peptide substrate was dissolved in water to give the final concentration of 1 mg/mL.
(§9) Test compound solution: Test compound was dissolved in DMSO to obtain a 10 mM solution. The assay solution was prepared by adding 5 μL of this solution to […] of 10% DMSO/water to obtain the final concentration of 50 μM.
(§10) The enzymatic activity of all three kinases was determined as follows. Using a 96-well plate, the wells were divided into three categories: Blank wells, […] and Test wells. In Test wells, 5 μL of the test compound solution and 5 μL of the substrate solution were added. In Control wells, 5 μL of 10% DMSO/water and 5 μL of the substrate solution were added. In Blank wells, 10 μL of 10% DMSO/water was added. To each well was added 10 μL of Active Kinase Stock Solution to make up the volume in each well to 20 μL. All test samples, controls and blanks were run in duplicate. The reaction was initiated by the addition of 5 μL of [^33P]-ATP assay cocktail, bringing the final volume up to 25 μL in every well. The mixture was incubated at room temperature for 30 minutes. The reaction was terminated by transferring 10 μL of the reaction mixture into a Millipore MultiScreen filter plate (cat. number MSPHN6B50). The filter plate was washed in a 1% phosphoric acid solution with constant gentle shaking for 15 minutes and this step was repeated once. After the plate was dried in air, scintillation fluid was added to each well and the radioactivity in each well in CPM was counted by a Microbeta TriLux. The corrected CPM in each test well was determined by subtracting the average value of Blank well values. Percentage of inhibition of the kinase enzymatic activity by the test compound was determined using the following formula: […]
(§11) The IC50 values were determined in a similar way following a serial dilution of the test compound. […]

[2] = biological target: T2, human Axl (Homo sapiens, UniProt P30530); assay: Kinase enzymatic activity assay (33P-radiolabeled phosphate transfer), Axl; conditions: recombinant human Axl (473-end), poly(4:1 glu:tyr) substrate, 30 minutes
T2 construct: GST (N); made in house; host or cells: Sf9 insect cells (baculovirus)
T2 sequence (P30530 473-894 limits assumed): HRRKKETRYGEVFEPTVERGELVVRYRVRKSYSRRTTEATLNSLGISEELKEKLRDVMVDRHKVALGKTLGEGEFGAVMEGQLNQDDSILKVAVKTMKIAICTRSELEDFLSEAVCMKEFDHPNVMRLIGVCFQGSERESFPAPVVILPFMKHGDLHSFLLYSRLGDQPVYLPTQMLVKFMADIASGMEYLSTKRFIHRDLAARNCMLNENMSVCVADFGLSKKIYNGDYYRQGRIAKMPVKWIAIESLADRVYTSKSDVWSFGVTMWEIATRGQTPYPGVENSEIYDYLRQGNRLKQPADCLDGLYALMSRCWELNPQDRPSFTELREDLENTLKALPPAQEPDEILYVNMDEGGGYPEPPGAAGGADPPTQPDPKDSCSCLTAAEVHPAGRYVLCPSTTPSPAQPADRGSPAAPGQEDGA
From the text: as §1, §2, §3, §4, §5, §6, §7, §8, §9, §10, §11

[3] = biological target: T3, human Mer (Homo sapiens, UniProt Q12866); assay: Kinase enzymatic activity assay (33P-radiolabeled phosphate transfer), Mer; conditions: recombinant human Mer (578-872), poly(4:1 glu:tyr) substrate, 30 minutes
T3 construct: GST (N); made in house; host or cells: Sf9 insect cells (baculovirus)
T3 sequence (Q12866 578-872): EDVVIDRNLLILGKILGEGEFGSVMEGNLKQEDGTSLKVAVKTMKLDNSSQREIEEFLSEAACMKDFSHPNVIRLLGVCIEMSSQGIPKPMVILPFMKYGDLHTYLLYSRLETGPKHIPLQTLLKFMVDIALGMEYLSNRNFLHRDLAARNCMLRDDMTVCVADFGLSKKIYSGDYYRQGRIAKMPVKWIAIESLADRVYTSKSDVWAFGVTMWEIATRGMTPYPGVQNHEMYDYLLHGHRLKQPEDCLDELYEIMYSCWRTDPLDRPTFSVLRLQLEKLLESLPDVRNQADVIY
From the text: as §1, §2, §3, §4, §5, §6, §7, §8, §9, §10, §11

SMILES	IC50 [1] [µM]	IC50 [2] [nM]	IC50 [3] [µM]
FC(F)(F)c1csc(Nc2ncnc3cc(OCCCN4CCOCC4)cc(OC4CCOCC4)c23)n1 [Example 2.18, N-(7-(3-morpholinopropoxy)-5-((tetrahydro-2H-pyran-4-yl)oxy)quinazolin-4-yl)-4-(trifluoromethyl)thiazol-2-amine]	> 10	500 to 1000	1 to 10
Cc1nnc(Nc2ncnc3cc(OCCCN4CCOCC4)cc(OC4CCOCC4)c23)s1 [Example 2.20, 5-methyl-N-(7-(3-morpholinopropoxy)-5-((tetrahydro-2H-pyran-4-yl)oxy)quinazolin-4-yl)-1,3,4-thiadiazol-2-amine]	> 10	1000 to 10000	1 to 10
FC(F)(F)c1nnc(Nc2ncnc3cc(OCCCN4CCOCC4)cc(OC4CCOCC4)c23)s1 [Example 2.22, N-(7-(3-morpholinopropoxy)-5-((tetrahydro-2H-pyran-4-yl)oxy)quinazolin-4-yl)-5-(trifluoromethyl)-1,3,4-thiadiazol-2-amine]	> 10	1000 to 10000	> 10
CN1CCC(COc2cc(OC3CCOCC3)c3c(Nc4nc(C(F)(F)F)cs4)ncnc3c2)CC1 [Example 2.23, N-(7-((1-methylpiperidin-4-yl)methoxy)-5-((tetrahydro-2H-pyran-4-yl)oxy)quinazolin-4-yl)-4-(trifluoromethyl)thiazol-2-amine]	> 10	< 500	> 10
COc1cc(N2CCOCC2)cc2ncnc(Nc3nc(C(F)(F)F)cs3)c12 [Example 2.24, N-(5-methoxy-7-morpholinoquinazolin-4-yl)-4-(trifluoromethyl)thiazol-2-amine]	> 10	1000 to 10000	> 10
COc1cc(N2CCN(C)CC2)cc2ncnc(Nc3nc(C(F)(F)F)cs3)c12 [Example 2.25, N-(5-methoxy-7-(4-methylpiperazin-1-yl)quinazolin-4-yl)-4-(trifluoromethyl)thiazol-2-amine]	> 10	500 to 1000	> 10
COC(=O)Cc1cccc(Oc2ncnc3cc(OCCCN4CCOCC4)cc(OC)c23)c1 [Example 2.27, methyl 2-(3-((5-methoxy-7-(3-morpholinopropoxy)quinazolin-4-yl)oxy)phenyl)acetate]	1 to 10	> 10000	1 to 10
COc1cc(OCCCN2CCOCC2)cc2ncnc(Oc3cccc(C(=O)NCc4ccccc4)c3)c12 [Example 2.28, N-benzyl-3-((5-methoxy-7-(3-morpholinopropoxy)quinazolin-4-yl)oxy)benzamide]	> 10	> 10000	> 10
COc1cc(OCCCN2CCOCC2)cc2ncnc(Oc3cccc(CC(=O)NCc4ccccc4)c3)c12 [Example 2.29, N-benzyl-2-(3-((5-methoxy-7-(3-morpholinopropoxy)quinazolin-4-yl)oxy)phenyl)acetamide]	1 to 10	> 10000	> 10

Next, values leading:

IC50 [1] [µM]	IC50 [2] [nM]	IC50 [3] [µM]	SMILES
1 to 10	< 500	< 0.5	CN1CCN(CCOc2cc(OC3CCOCC3)c3c(Nc4nccs4)ncnc3c2)CC1 [Example 2.14, N-(7-(2-(4-methylpiperazin-1-yl)ethoxy)-5-((tetrahydro-2H-pyran-4-yl)oxy)quinazolin-4-yl)thiazol-2-amine]
0.5 to 1	1000 to 10000	0.5 to 1	CN(C)CCN(C)CCOc1cc(OC2CCOCC2)c2c(Oc3ccc(F)cc3Cl)ncnc2c1 [Example 2.15, N^1-(2-((4-(2-chloro-4-fluorophenoxy)-5-((tetrahydro-2H-pyran-4-yl)oxy)quinazolin-7-yl)oxy)ethyl)-N^1,N^2,N^2-trimethylethane-1,2-diamine]
1 to 10	< 500	> 10	COc1ncnc2cc(OCCOCCN(C)C)cc(OC3CCOCC3)c12 [Example 2.16, 2-(2-((4-methoxy-5-((tetrahydro-2H-pyran-4-yl)oxy)quinazolin-7-yl)oxy)ethoxy)-N,N-dimethylethanamine]
< 0.5	1000 to 10000	1 to 10	COc1cc(OCCCN2CCOCC2)cc2ncnc(Oc3ccc(F)cc3Cl)c12 [Example 2.17, 4-(3-((4-(2-chloro-4-fluorophenoxy)-5-methoxyquinazolin-7-yl)oxy)propyl)morpholine]
1 to 10	< 500	1 to 10	c1nc(Nc2nncs2)c2c(OC3CCOCC3)cc(OCCCN3CCOCC3)cc2n1 [Example 2.19, N-(7-(3-morpholinopropoxy)-5-((tetrahydro-2H-pyran-4-yl)oxy)quinazolin-4-yl)-1,3,4-thiadiazol-2-amine]
1 to 10	< 500	< 0.5	c1csc(Nc2ncnc3cc(OCCCN4CCOCC4)cc(OC4CCOCC4)c23)n1 [Example 2.21, N-(7-(3-morpholinopropoxy)-5-((tetrahydro-2H-pyran-4-yl)oxy)quinazolin-4-yl)thiazol-2-amine]
1 to 10	> 10000	> 10	COC(=O)c1cccc(Oc2ncnc3cc(OCCCN4CCOCC4)cc(OC)c23)c1 [Example 2.26, methyl 3-((5-methoxy-7-(3-morpholinopropoxy)quinazolin-4-yl)oxy)benzoate]

— patent publication US9771333B2, “Quinazoline derivatives as TAM family kinase inhibitors” (SIGNALCHEM LIFESCIENCES CORP., priority 2013, dated 2017)
